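The compound was tested at five concentrations on cells cultured in 96-well plates, with a 48-hour exposure period. GI50 marks 50% less growth.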 The source made the active and inactive calls. Cut-off read from the data, not from the text of the source: active = GI50 up to about 1.1 µM and inactive = higher.
Experiments:
Test in all cases: NCI anticancer screen, dose series, 48 h
NCI-H522 = tested on: NCI-H522
UACC-257 = tested on: UACC-257
KM-20L2 = tested on: KM-20L2
OVCAR-8 = tested on: OVCAR-8
SF-295 = tested on: SF-295
HT-29 = tested on: HT-29
COLO 205 = tested on: COLO 205
K562 = tested on: K562
SNB-78 = tested on: SNB-78
SK-MEL-2 = tested on: SK-MEL-2
Malme-3M = tested on: Malme-3M
IGROV-1 = tested on: IGROV-1
CAKI-1 = tested on: CAKI-1
OVCAR-3 = tested on: OVCAR-3
SF-268 = tested on: SF-268
HOP-62 = tested on: HOP-62
OVCAR-5 = tested on: OVCAR-5
LXFL 529 = tested on: LXFL 529
HOP-18 = tested on: HOP-18
DMS-273 = tested on: DMS-273
MOLT-4 = tested on: MOLT-4
U-251 = tested on: U-251
ACHN = tested on: ACHN
DMS-114 = tested on: DMS-114
UACC-62 = tested on: UACC-62
NCI-H23 = tested on: NCI-H23
UO-31 = tested on: UO-31
RPMI-8226 = tested on: RPMI-8226
KM12 = tested on: KM12
SK-MEL-28 = tested on: SK-MEL-28
SW-620 = tested on: SW-620
EKVX = tested on: EKVX
HL-60 = tested on: HL-60
A498 = tested on: A498
786-0 = tested on: 786-0
NCI-H460 = tested on: NCI-H460
HCC 2998 = tested on: HCC 2998
XF498 = tested on: XF498
LOX IMVI = tested on: LOX IMVI
CCRF-CEM = tested on: CCRF-CEM
RXF 393 = tested on: RXF 393
SNB-75 = tested on: SNB-75
SK-MEL-5 = tested on: SK-MEL-5
SF-539 = tested on: SF-539
HCT-15 = tested on: HCT-15
SN12C = tested on: SN12C
TK-10 = tested on: TK-10
A549 = tested on: A549
SNB-19 = tested on: SNB-19
HOP-92 = tested on: HOP-92
M19-MEL = tested on: M19-MEL
DLD-1 = tested on: DLD-1
NCI-H226 = tested on: NCI-H226
SR = tested on: SR
OVCAR-4 = tested on: OVCAR-4
SK-OV-3 = tested on: SK-OV-3
M14 = tested on: M14
HCT-116 = tested on: HCT-116
MCF7 = tested on: MCF7
MDA-N = tested on: MDA-N

CC(=O)OC(C)(C)/C=C/C(=O)[C@](C)(O)[C@H]1[C@H](O)C[C@@]2(C)[C@@H]3CC=C4[C@@H](C[C@H](O)C(=O)C4(C)C)[C@]3(CO)C(=O)C[C@]12C [CUCURBITACIN A]
GI50 (NCI-H522): 288 nM (active) | GI50 (UACC-257): 364 nM (active) | GI50 (KM-20L2): 303 nM (active) | GI50 (OVCAR-8): 615 nM (active) | GI50 (SF-295): 314 nM (active) | GI50 (HT-29): 308 nM (active) | GI50 (COLO 205): 318 nM (active) | GI50 (K562): 445 nM (active) | GI50 (SNB-78): 330 nM (active) | GI50 (SK-MEL-2): 100 nM (active) | GI50 (Malme-3M): 344 nM (active) | GI50 (IGROV-1): 634 nM (active) | GI50 (CAKI-1): 243 nM (active) | GI50 (OVCAR-3): 446 nM (active) | GI50 (SF-268): 168 nM (active) | GI50 (HOP-62): 260 nM (active) | GI50 (OVCAR-5): 955 nM (active) | GI50 (LXFL 529): 340 nM (active) | GI50 (HOP-18): 148 nM (active) | GI50 (DMS-273): 149 nM (active) | GI50 (MOLT-4): 3100 nM (inactive) | GI50 (U-251): 233 nM (active) | GI50 (ACHN): 262 nM (active) | GI50 (DMS-114): 483 nM (active) | GI50 (UACC-62): 543 nM (active) | GI50 (NCI-H23): 536 nM (active) | GI50 (UO-31): 317 nM (active) | GI50 (RPMI-8226): 94.2 nM (active) | GI50 (KM12): 1100 nM (active) | GI50 (SK-MEL-28): 132 nM (active) | GI50 (SW-620): 367 nM (active) | GI50 (EKVX): 364 nM (active) | GI50 (HL-60): 335 nM (active) | GI50 (A498): 231 nM (active) | GI50 (786-0): 316 nM (active) | GI50 (NCI-H460): 184 nM (active) | GI50 (HCC 2998): 350 nM (active) | GI50 (XF498): 374 nM (active) | GI50 (LOX IMVI): 207 nM (active) | GI50 (CCRF-CEM): 286 nM (active) | GI50 (RXF 393): 208 nM (active) | GI50 (SNB-75): 131 nM (active) | GI50 (SK-MEL-5): 316 nM (active) | GI50 (SF-539): 285 nM (active) | GI50 (HCT-15): 468 nM | GI50 (SN12C): 448 nM (active) | GI50 (TK-10): 179 nM (active) | GI50 (A549): 391 nM (active) | GI50 (SNB-19): 249 nM (active) | GI50 (HOP-92): 237 nM (active) | GI50 (M19-MEL): 451 nM (active) | GI50 (DLD-1): 337 nM (active) | GI50 (NCI-H226): 76.2 nM (active) | GI50 (SR): 650 nM (active) | GI50 (OVCAR-4): 348 nM (active) | GI50 (SK-OV-3): 391 nM (active) | GI50 (M14): 390 nM (active) | GI50 (HCT-116): 437 nM (active)

Cc1cc(NS(=O)(=O)c2ccc(Nc3c4ccccc4nc4c(C(=O)Nc5ccc(S(=O)(=O)N=C(N)N)cc5)ccc(Cl)c34)cc2)no1
GI50 (NCI-H522): 16000 nM (inactive) | GI50 (UACC-257): > 100000 nM (inactive) | GI50 (KM-20L2): 98400 nM (inactive) | GI50 (OVCAR-8): 19300 nM (inactive) | GI50 (SF-295): 73300 nM (inactive) | GI50 (HT-29): 49700 nM (inactive) | GI50 (COLO 205): 83000 nM (inactive) | GI50 (K562): 22100 nM (inactive) | GI50 (SNB-78): 23400 nM (inactive) | GI50 (Malme-3M): 46700 nM (inactive) | GI50 (CAKI-1): 54200 nM (inactive) | GI50 (OVCAR-3): 21500 nM (inactive) | GI50 (SF-268): 23800 nM (inactive) | GI50 (HOP-62): 22100 nM (inactive) | GI50 (OVCAR-5): > 100000 nM (inactive) | GI50 (LXFL 529): 31300 nM (inactive) | GI50 (HOP-18): 16400 nM (inactive) | GI50 (DMS-273): 40600 nM (inactive) | GI50 (MOLT-4): 24700 nM (inactive) | GI50 (U-251): 28600 nM (inactive) | GI50 (ACHN): 60500 nM (inactive) | GI50 (DMS-114): 27100 nM (inactive) | GI50 (UACC-62): 25100 nM (inactive) | GI50 (NCI-H23): 29900 nM (inactive) | GI50 (UO-31): 34500 nM (inactive) | GI50 (RPMI-8226): 29800 nM (inactive) | GI50 (KM12): 87900 nM (inactive) | GI50 (SK-MEL-28): 54500 nM (inactive) | GI50 (EKVX): 65000 nM (inactive) | GI50 (HL-60): 22200 nM (inactive) | GI50 (A498): 44600 nM (inactive) | GI50 (786-0): 50400 nM (inactive) | GI50 (NCI-H460): 98900 nM (inactive) | GI50 (HCC 2998): 38500 nM (inactive) | GI50 (XF498): 31400 nM (inactive) | GI50 (LOX IMVI): 19600 nM (inactive) | GI50 (RXF 393): 29000 nM (inactive) | GI50 (SNB-75): 25900 nM (inactive) | GI50 (SK-MEL-5): > 100000 nM (inactive) | GI50 (SF-539): 18500 nM (inactive) | GI50 (SN12C): 31200 nM (inactive) | GI50 (TK-10): > 100000 nM (inactive) | GI50 (A549): > 100000 nM (inactive) | GI50 (SNB-19): 31700 nM (inactive) | GI50 (M19-MEL): 39800 nM (inactive) | GI50 (DLD-1): 47300 nM (inactive) | GI50 (NCI-H226): 28200 nM (inactive) | GI50 (SR): 25200 nM (inactive) | GI50 (OVCAR-4): 28500 nM (inactive) | GI50 (SK-OV-3): 31700 nM (inactive) | GI50 (M14): > 100000 nM (inactive) | GI50 (HCT-116): 53800 nM (inactive)

COc1ccc(/C=C\c2cc(OC)c(OC)c(OC)c2)cc1OC(=O)C(N)CCC(=O)O (centres undefined)
GI50 (NCI-H522): 0.0851 nM (active) | GI50 (UACC-257): 0.465 nM (active) | GI50 (KM-20L2): 2.52 nM (active) | GI50 (OVCAR-8): 0.143 nM (active) | GI50 (HT-29): 1430 nM (inactive) | GI50 (SNB-78): < 0.01 nM (active) | GI50 (Malme-3M): 0.105 nM (active) | GI50 (OVCAR-3): 0.11 nM (active) | GI50 (LXFL 529): < 0.01 nM (active) | GI50 (HOP-18): 76.4 nM (active) | GI50 (DMS-273): < 0.01 nM (active) | GI50 (MOLT-4): 0.135 nM (active) | GI50 (DMS-114): < 0.01 nM (active) | GI50 (UACC-62): 0.0802 nM (active) | GI50 (NCI-H23): 0.114 nM (active) | GI50 (RPMI-8226): 0.1 nM (active) | GI50 (KM12): 0.131 nM (active) | GI50 (SK-MEL-28): 0.188 nM (active) | GI50 (SW-620): 0.15 nM (active) | GI50 (HL-60): 0.075 nM (active) | GI50 (786-0): 0.764 nM (active) | GI50 (NCI-H460): 0.133 nM (active) | GI50 (XF498): < 0.01 nM (active) | GI50 (CCRF-CEM): 0.117 nM (active) | GI50 (SF-539): 0.0822 nM (active) | GI50 (A549): 0.802 nM (active) | GI50 (M19-MEL): < 0.01 nM (active) | GI50 (DLD-1): < 0.01 nM (active) | GI50 (MCF7): 2.29 nM (active) | GI50 (NCI-H226): 0.632 nM (active) | GI50 (SR): 0.208 nM (active) | GI50 (MDA-N): 0.05 nM (active) | GI50 (M14): 0.16 nM (active) | GI50 (HCT-116): 0.15 nM (active)

— ChEMBL document CHEMBL1201862, “PubChem BioAssay data set” (2004)
